Data reported in article PMC9101642 (Molecules, 2022).
Read-outs that look alike come from different tables or passages of the source. Marks after values point to notes of the source that are not given here.

What was measured:
ERα [1] = target: T1, ERα (Homo sapiens, UniProt P03372); assay: ERα down-regulation immunofluorescence assay in MCF-7; type: cell-based
T1 sequence (P03372 1-595): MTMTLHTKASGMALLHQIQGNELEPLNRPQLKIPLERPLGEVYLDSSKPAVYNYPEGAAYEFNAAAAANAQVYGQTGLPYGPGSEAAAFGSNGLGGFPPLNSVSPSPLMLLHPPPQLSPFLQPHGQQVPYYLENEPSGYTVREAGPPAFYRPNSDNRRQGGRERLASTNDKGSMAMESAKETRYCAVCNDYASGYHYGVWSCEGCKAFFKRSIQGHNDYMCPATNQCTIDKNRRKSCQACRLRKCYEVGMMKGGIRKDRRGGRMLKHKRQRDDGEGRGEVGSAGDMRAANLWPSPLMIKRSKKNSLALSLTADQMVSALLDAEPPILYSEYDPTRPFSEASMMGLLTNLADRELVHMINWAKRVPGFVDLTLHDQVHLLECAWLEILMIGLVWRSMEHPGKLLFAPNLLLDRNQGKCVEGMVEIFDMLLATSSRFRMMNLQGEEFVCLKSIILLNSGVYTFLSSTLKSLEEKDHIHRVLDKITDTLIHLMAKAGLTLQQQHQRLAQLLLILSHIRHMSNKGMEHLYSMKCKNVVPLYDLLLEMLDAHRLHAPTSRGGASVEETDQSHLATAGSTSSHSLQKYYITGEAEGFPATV

ERα [2] = target: T1, ERα; assay: Fluorescence polarization competition assay: antagonistic potency and relative binding affinity; conditions: for logRBA ERα: log of % relative binding affinity, estradiol = 100%
[3] = tested on: Ishikawa endometrial adenocarcinoma cells; assay: Antiproliferative assay; type: cell-based; conditions: Homo sapiens, growth inhibition
Excerpt: As SERMs profile is often associated with the stimulation of endometrial cell proliferation and an increase in the incidence of endometrial cancer (EC), the herein compounds were therefore evaluated against Ishikawa endometrial adenocarcinoma cells (Table 8, Supplementary Material Figures […]). […] However, future experimental elaboration, currently beyond the authors' experimental facilities, is required to confirm compounds' promising profiles in terms of no EC induction.

MCF-7 cell lines = assay: MTT antiproliferative assay; type: cell-based, human; conditions: for IC50: Homo sapiens, MCF7; for SI: selectivity index [IC50(MDA-MB-231)]/[IC50(MCF-7)]
ERβ = ERβ (Homo sapiens, UniProt Q92731); assay: Fluorescence polarization competition assay: antagonistic potency and relative binding affinity; conditions: for logRBA ERβ: log of % relative binding affinity, estradiol = 100%
[4] = tested on: progesterone receptor (PR); assay: ERα functional antagonism cell assay (PR as biomarker) in MCF-7; type: cell-based; conditions: Homo sapiens, MCF7; progesterone receptor as biomarker for ERα antagonism in MCF-7
MDA-MB-231 cell lines = assay: MTT antiproliferative assay; type: cell-based, human; conditions: Homo sapiens, MDA-MB-231
[5] = MTT antiproliferative assay (neutral control); conditions: human
MCF-7 cells = assay: Cell cycle distribution by flow cytometry; type: cell-based, human; conditions: 24 h
[6] = tested on: MNU-induced breast cancer; assay: In vivo anticancer screening, MNU-induced mammary tumorigenesis; design: species or system female Wistar rats; conditions: dose 50 mg/kg (compounds per os after MNU; MNU alone i.p.)
[7] = tested on: MNU-induced breast cancer tissue; assay: Histopathology of breast sections; type: in vivo, Wistar rats; conditions: 50 mg/kg of bwt
Excerpt: The impact of selected leads on BC tissue was registered after their administration to experimental animals with MNU-induced BC (Figure 9 and Supplementary Material Figures S211–S218). […] In contrast to this, the administered leads were harmless in both concentrations, neutralizing the MNU-induced changes, judging by the lobuloalveolar units and cuboidal epithelial cells found (Figure 9C,D, and Supplementary Material Figures S214–S218). […]
Histopathological Studies
histopathological changes. […]

[8] = Liver oxidative stress markers after treatment of MNU-induced rats; type: in vivo, Wistar rats; conditions: liver, dose 50 mg/kg
Experimental: (§1) Rats were housed at 3 per cage and
(§2) The breast cancer was induced after the MNU (Sigma Aldrich CAS No. 684-93-5) administration. An aqueous solution at a concentration of 10 mg/ml was made by wetting the NMU powder with 3% acetic acid and then dissolving it in 0.9% NaCl solution; a fresh solution was prepared for each injection. Rats were given intraperitoneal (i.p.) 50 mg/kg of MNU on the 50th day of age. Animals were divided into different groups with six animals in each group. Group I (intact control) received 0.9% NaCl solution.
(§3) Groups II-IV and V-VII were introduced with MNU. Two weeks after MNU treatment, animals were treated orally with synthesized compounds and control substances (5 and 50 mg/kg, for groups II-IV and V-VII, respectively) by gavage once per day for six weeks. Animals in the intact control group and untreated MNU group were given vehicle (Tween 80) according to the experimental protocol. […]
Upon finishing the treatment with synthesized compounds, animals were sacrificed, and plasma, serum, and liver samples were collected. […]
Determination of Antioxidant Markers in Liver Homogenate
Rat liver samples were homogenized in phosphate buffer (5 mM, pH = 7.4) to give a 10% (w/v) liver homogenate and then centrifuged at 4000 rpm for 15 min at 4°C. The supernatant of liver homogenate was used for the estimation of reduced glutathione (GSH) and catalase (CAT) levels by the colorimetric method. The contents of malondialdehyde (MDA) in the supernatant of the liver homogenates were determined using 1,1,3,3-tetraethoxypropane as standard. Total protein concentrations were determined according to the method of Lowry using bovine serum albumin as […]

[9] = Serum biochemical markers after treatment of MNU-induced rats; type: in vivo, Wistar rats; design: TBC: unit not given here; conditions: dose 50 mg/kg
Experimental: as §1, §2, §3
Upon finishing the treatment with synthesized compounds, animals were sacrificed, and plasma, serum, and liver samples were collected.
Measurement of Serum Biochemical Markers
The activities of AST and ALT on 340 nm, and ALP on 405 nm, were determined by UV-Vis kinetic methods according to recommendations of the Expert Panel of the IFCC (International Federation of Clinical Chemistry). The colorimetric methods were used for the determination of total bilirubin (Jendrassik-Grof 550 nm method). All kinetic and colorimetric measurements were recorded using a Perkin-Elmer Lambda 25 UV/Vis spectrophotometer. […]

[10] = growth inhibition, 48 h, read-out: MCF-7 (IC50 nM)
[11] = growth inhibition, 48 h, read-out: MDA-MB-231 (IC50 nM)
[12] = 1 nM as lower concentration (3DPQ-5, 3DPQ-6, 3DPQ-8)
[13] = MFD 1000 mg/kg (MNU: MTD 100 mg/kg bwt), 5 days

Chain of ERβ (Q92731 whole entry): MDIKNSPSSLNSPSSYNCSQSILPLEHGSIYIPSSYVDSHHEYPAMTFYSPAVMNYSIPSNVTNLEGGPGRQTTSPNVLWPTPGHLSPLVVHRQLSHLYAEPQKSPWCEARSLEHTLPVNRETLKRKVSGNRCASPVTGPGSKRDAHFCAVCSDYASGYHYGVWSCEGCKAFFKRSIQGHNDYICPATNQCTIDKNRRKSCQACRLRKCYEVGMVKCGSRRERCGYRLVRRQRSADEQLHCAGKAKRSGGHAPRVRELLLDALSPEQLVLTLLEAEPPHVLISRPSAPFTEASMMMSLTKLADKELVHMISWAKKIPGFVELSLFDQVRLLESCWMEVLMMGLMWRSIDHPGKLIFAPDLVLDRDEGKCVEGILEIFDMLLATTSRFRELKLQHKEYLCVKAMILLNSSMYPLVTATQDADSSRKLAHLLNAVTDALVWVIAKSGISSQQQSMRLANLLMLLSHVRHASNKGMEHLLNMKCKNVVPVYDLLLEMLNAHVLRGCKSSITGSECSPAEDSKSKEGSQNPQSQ

SMILES: CC(=O)c1cc(C(=O)O[C@@H]2/C=C/C(=O)O[C@@H](O)CCC/C=C/[C@@H]3C[C@H](O)C[C@H]32)ccc1OCCN1CCCC1 [Compound 3DPQ-11, (1R,2E,6R,10E,11aS,13S,14aR)-6,13-dihydroxy-4-oxo-4,6,7,8,9,11a,12,13,14,14a-decahydro-1H-cyclopenta[f][1]oxacyclotridecin-1-yl 3-acetyl-4-(2-(pyrrolidin-1-yl)ethoxy)benzoate]
- IC50 (ERα [1]): > 100 nM
- IC50 (ERα [2]): 0.7 ± 0.33 nM
- Ki (ERα [2]): 0.16 nM
- logRBA ERα (ERα [2]): 2.10 ^‡
- ERα potency, fold higher than Ral (ERα [2]; ratio of IC50 values): 1.06 fold
- IC50 [3]: 1.37 ± 0.47 nM
- IC50 (MCF-7 cell lines; [10]): 0.81 ± 0.22 nM
- MCF-7 antiproliferative potency, fold higher than Ral (MCF-7 cell lines; ratio of IC50 values): 1.10 fold
- SI (MCF-7 cell lines): 82.86 ^‡,§
- IC50 (ERβ): 76.52 ± 0.48 nM
- Ki (ERβ): 43 nM
- logRBA ERβ (ERβ): 0.07 ^†,‡,§
- IC50 [4]: > 100 nM
- IC50 (MDA-MB-231 cell lines; [11]): 67.12 ± 0.54 nM
- IC50 at 48 h [5]: > 100 nM
- Cell Cycle (%) G0/G1 (MCF-7 cells; 0.1 nM): 72.53 ± 0.47 *^,†,‡,§ %
- Cell Cycle (%) G2/M (MCF-7 cells; 0.1 nM): 14.16 ± 2.13 *^,†,‡,§ %
- Cell Cycle (%) S (MCF-7 cells; 0.1 nM): 13.31 ± 1.66 *^,†,‡,§ %
- Cell Cycle (%) G0/G1 (MCF-7 cells; 1 nM): 74.99 ± 2.54 *^,†,‡,§ %
- Cell Cycle (%) G2/M (MCF-7 cells; 1 nM): 11.00 ± 3.43 *^,†,‡,§ %
- Cell Cycle (%) S (MCF-7 cells; 1 nM): 14.02 ± 1.43 *^,†,‡,§ %

SMILES: CC(=O)c1cc(C(=O)O[C@@H]2/C=C/C(=O)O[C@@H](O)CCC/C=C/[C@@H]3C[C@H](O)C[C@H]32)ccc1OCCN1Cc2cccnc2C1 [Compound 3DPQ-6, (1R,2E,6R,10E,11aS,13S,14aR)-6,13-dihydroxy-4-oxo-4,6,7,8,9,11a,12,13,14,14a-decahydro-1H-cyclopenta[f][1]oxacyclotridecin-1-yl 4-(2-(5H-pyrrolo[3,4-b]pyridin-6(7H)-yl)ethoxy)-3-acetylbenzoate]
- IC50 (ERα [1]): > 100 nM
- IC50 (ERα [2]): 0.84 ± 0.11 nM
- Ki (ERα [2]): 0.19 nM
- logRBA ERα (ERα [2]): 2.03 ^‡
- ERα potency, fold more potent than 4-OHT (ERα [2]; ratio of IC50 values): 1.33 fold
- IC50 [3]: 1.46 ± 0.43 nM
- IC50 (MCF-7 cell lines; [10]): 1.14 ± 0.49 nM
- SI (MCF-7 cell lines): 45.89 ^‡,§
- IC50 (ERβ): 86.56 ± 0.33 nM
- Ki (ERβ): 48.6 nM
- logRBA ERβ (ERβ): 0.01 ^†,‡,§
- IC50 [4]: > 100 nM
- IC50 (MDA-MB-231 cell lines; [11]): 52.31 ± 0.46 nM
- IC50 at 48 h [5]: > 100 nM
- Cell Cycle (%) G0/G1 (MCF-7 cells; [12]): 70.52 ± 1.53 *^,†,‡,§ %
- Cell Cycle (%) G2/M (MCF-7 cells; [12]): 16.21 ± 3.25 *^,†,‡,§ %
- Cell Cycle (%) S (MCF-7 cells; [12]): 13.27 ± 2.64 *^,†,‡,§ %
- Cell Cycle (%) G0/G1 (MCF-7 cells; 10 nM (3DPQ-5, 3DPQ-6, 3DPQ-8)): 71.98 ± 2.44 *^,†,‡,§ %
- Cell Cycle (%) G2/M (MCF-7 cells; 10 nM (3DPQ-5, 3DPQ-6, 3DPQ-8)): 14.05 ± 2.43 *^,†,‡,§ %
- Cell Cycle (%) S (MCF-7 cells; 10 nM (3DPQ-5, 3DPQ-6, 3DPQ-8)): 13.98 ± 1.33 *^,†,‡,§ %

SMILES: CC(=O)c1cc(C(=O)O[C@@H]2/C=C/C(=O)O[C@@H](O)CCC/C=C/[C@@H]3C[C@H](O)C[C@H]32)ccc1OCCN1CCCCC1 [Compound 3DPQ-10, (1R,2E,6R,10E,11aS,13S,14aR)-6,13-dihydroxy-4-oxo-4,6,7,8,9,11a,12,13,14,14a-decahydro-1H-cyclopenta[f][1]oxacyclotridecin-1-yl 3-acetyl-4-(2-(piperidin-1-yl)ethoxy)benzoate]
- IC50 (ERα [1]): > 100 nM
- IC50 (ERα [2]): 0.77 ± 0.14 nM
- Ki (ERα [2]): 0.17 nM
- logRBA ERα (ERα [2]): 2.06 ^‡
- ERα potency, fold more potent than 4-OHT (ERα [2]; ratio of IC50 values): 1.45 fold
- IC50 [3]: 1.55 ± 0.42 nM
- IC50 (MCF-7 cell lines; [10]): 0.97 ± 0.34 nM
- SI (MCF-7 cell lines): 42.27 ^‡,§
- IC50 (ERβ): 79.54 ± 0.76 nM
- Ki (ERβ): 44.7 nM
- logRBA ERβ (ERβ): 0.05 ^†,‡,§
- IC50 [4]: > 100 nM
- IC50 (MDA-MB-231 cell lines; [11]): 41.97 ± 0.32 nM
- IC50 at 48 h [5]: > 100 nM
- Cell Cycle (%) G0/G1 (MCF-7 cells; 0.1 nM): 71.96 ± 1.43 *^,†,‡,§ %
- Cell Cycle (%) G2/M (MCF-7 cells; 0.1 nM): 16.08 ± 1.56 *^,†,‡,§ %
- Cell Cycle (%) S (MCF-7 cells; 0.1 nM): 11.96 ± 2.41 *^,†,‡,§ %
- Cell Cycle (%) G0/G1 (MCF-7 cells; 1 nM): 74.42 ± 2.12 *^,†,‡,§ %
- Cell Cycle (%) G2/M (MCF-7 cells; 1 nM): 12.92 ± 4.32 *^,†,‡,§ %
- Cell Cycle (%) S (MCF-7 cells; 1 nM): 12.67 ± 2.46 *^,†,‡,§ %

SMILES: CN(N=O)C(N)=O [MNU, Methyl nitrosourea, reference compound]
- Tumor Burden (week) [6]: 4.55 ± 0.15 *^,‡,§,‖,┴ week
- Tumor Latency (week) [6]: 5 *^,†,‡,§,‖,┴ week
- Tumor Volume (mm^3) [6]: 4.48 ± 0.54 mm^3
- breast section histopathology [7]: mammary gland carcinoma alongside with massive proliferation of neoplastic epithelial cells (EC)
- CAT ([8]; catalase activity): 3.08±0.68
- TBARS [8]: 3.31 ± 0.72 nmol/mg
- SOD (U/mg) ([8]; superoxide dismutase activity): 3.32±0.14 U/mg
- TP ([8]; total protein content): 51.32 ± 0.43 g/L
- ALP (A/L) ([9]; serum): 232.54±0.32 A/L
- ALT (A/L) ([9]; serum): 157.31 A/L
- AST (U/L) ([9]; serum): 135.43 U/L
- γ-GT (U/L) ([9]; serum): 19.43±0.42 U/L
- TBC ([9]; total bilirubin content): 32.34
- colon section histopathology [13]: induced colon
- heart section histopathology [13]: interstitial hydrops
- kidney section histopathology [13]: large size neoplastic lymphocytes infiltrated into the interstitial
- liver section histopathology [13]: numerous numbers of medium to large size neoplastic lymphocytes
- lung section histopathology [13]: alveolar bronchiolar
- spleen section histopathology [13]: faded red pulp
- WL after MFD (day 1, mg) (average body weight at day 1, dosing at MFD): 305.44 ± 0.62 mg
- MFD (5 days) (maximum feasible (or tolerated) dose, 5 days per os, 5-1000 mg/kg bwt): 100 mg/kg

SMILES: C[C@H]1CCC/C=C/[C@@H]2C[C@H](O)C[C@H]2[C@H](O)/C=C/C(=O)O1 [BFA, Brefeldin A, reference compound]
- IC50 (MCF-7 cell lines; virtually screened NCI hits, Table S17, read-out: MCF-7 (IC50)): 9010 nM
- IC50 (MDA-MB-231 cell lines; virtually screened NCI hits, Table S17, read-out: MDA-MB-231 (IC50)): > 100000 nM
- IC50 at 48 h [5]: > 100000 nM
